Measurements taken from patent US9320271B2, “Microbial composition” (Rohm and Haas Company, priority 2011, dated 2016).
“And” between values parts separate entries of the source, which are not always exact repeats. Equal entries are not always repeated.

Test system: Escherichia coli (E. coli—ATCC #10536)
Test: Synergy test: high resolution MBC microtiter plate assay, phosphate buffer containing 35% dipropylene glycol, 15 seconds contact
Type: cell-based
Conditions: E. coli 10536; for MBC of the component acting alone (QA / QB; Qa or Qb where the other component is 0): complete kill in 15 seconds

In the case of `Cc1ccc(C(C)C)c(O)c1O` [3-isopropyl-6-methylbenzene-1,2-diol], the “SI (Synergy Index)” value (at Qa and Qb, less than one = synergy) is reported as 1.00, the “MBC of the component acting alone (QA / QB; Qa or Qb where the other component is 0)” value is reported as 1.0 weight % and 0.8 weight % and the “MBC of the component acting alone (QA / QB; Qa or Qb where the other component is 0)” value (listed as 3-isopronyl-6-methylbenzene-1,2-diol) is reported as 0.8 weight %.
